Data from patent publication US9371280B2, “Substituted pyrrolidine-2-carboxamides” (Hoffmann-La Roche Inc., priority 2012, dated 2016).
Counter-ions that a name gives are not always drawn.

These compounds were tested against interaction between p53 and MDM2 proteins (recombinant GST-tagged MDM2) (Homo sapiens, UniProt Q00987) (assay: HTRF assay of inhibition of the p53-MDM2 interaction (GST-MDM2 / biotinylated p53 peptide)). Conditions: HTRF, 0.02% BSA, 37° C. 1 h.
Assay type: binding
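Further: FRET read-out from Eu-labelled anti-GST antibody to streptavidin-APC, with 90 nM N-terminally biotinylated p53 peptide and 160 ng/ml GST-MDM2 in Tris-borate saline containing 1 mM DTT, 384-well format.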
Method: The ability of the compounds to inhibit the interaction between p53 and MDM2 proteins was measured by an HTRF (homogeneous time-resolved fluorescence) assay in which recombinant GST-tagged MDM2 binds to a peptide that resembles the MDM2-interacting region of p53 (Lane et al.). Binding of GST-MDM2 protein and p53-peptide (biotinylated on its N-terminal end) is registered by the FRET (fluorescence resonance energy transfer) between Europium (Eu)-labeled anti-GST antibody and streptavidin-conjugated Allophycocyanin (APC).
Test is performed in black flat-bottom 384-well plates (Costar) in a total volume of 40 uL containing: 90 nM biotinylate peptide, 160 ng/ml GST-MDM2, 20 nM streptavidin-APC (PerkinElmerWallac), 2 nM Eu-labeled anti-GST-antibody (PerkinElmerWallac), 0.02% bovine serum albumin (BSA), 1 mM dithiothreitol (DTT) and 20 mM Tris-borate saline (TBS) buffer as follows: Add 10 uL of GST-MDM2 (640 ng/ml working solution) in reaction buffer to each well. […] Incubate at 37° C. for 1 h.

interaction between p53 and MDM2 proteins (recombinant GST-tagged MDM2), sequence (Q00987 whole entry): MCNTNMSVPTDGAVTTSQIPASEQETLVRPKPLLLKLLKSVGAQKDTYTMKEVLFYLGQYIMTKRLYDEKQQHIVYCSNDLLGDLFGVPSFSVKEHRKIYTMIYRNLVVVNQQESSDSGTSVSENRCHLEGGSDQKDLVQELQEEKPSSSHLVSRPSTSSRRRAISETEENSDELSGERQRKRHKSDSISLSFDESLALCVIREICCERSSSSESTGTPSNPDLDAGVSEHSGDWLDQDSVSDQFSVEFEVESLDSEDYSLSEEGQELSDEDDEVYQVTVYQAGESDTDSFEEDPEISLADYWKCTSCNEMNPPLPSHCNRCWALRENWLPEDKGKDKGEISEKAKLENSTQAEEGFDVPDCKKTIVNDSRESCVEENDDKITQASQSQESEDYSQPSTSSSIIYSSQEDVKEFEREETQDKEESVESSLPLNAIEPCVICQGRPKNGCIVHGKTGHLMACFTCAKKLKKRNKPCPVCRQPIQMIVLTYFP

| Compound | IC50 [µM] |
| --- | --- |
| COc1cc(C(=O)OCCOC(=O)[C@@H](C)N)ccc1NC(=O)[C@@H]1N[C@@H](CC(C)(C)C)[C@](C#N)(c2ccc(Cl)cc2F)[C@H]1c1cccc(Cl)c1F [Example 6, 4-{[(2R,3S,4R,5S)-3-(3-Chloro-2-fluoro-phenyl)-4-(4-chloro-2-fluoro-phenyl)-4-cyano-5-(2,2-dimethyl-propyl)-pyrrolidine-2-carbonyl]-amino}-3-methoxy-benzoic acid 2-((R)-2-amino-propionyloxy)-ethyl ester] | 0.0371 |
| COc1cc(C(=O)OCCN(C)C)ccc1NC(=O)[C@@H]1N[C@@H](CC(C)(C)C)[C@](C#N)(c2ccc(Cl)cc2F)[C@H]1c1cccc(Cl)c1F [Example 7, 2-(Dimethylamino)ethyl 4-((2R,3S,4R,5S)-3-(3-chloro-2-fluorophenyl)-4-(4-chloro-2-fluorophenyl)-4-cyano-5-neopentylpyrrolidine-2-carboxamido)-3-methoxybenzoate] | 0.0146 |
| COc1cc(C(=O)OCC(CO)CO)ccc1NC(=O)[C@@H]1N[C@@H](CC(C)(C)C)[C@](C#N)(c2ccc(Cl)cc2F)[C@H]1c1cccc(Cl)c1F [Example 9, 3-Hydroxy-2-(hydroxymethyl)propyl 4-((2R,3S,4R,5S)-3-(3-chloro-2-fluorophenyl)-4-(4-chloro-2-fluorophenyl)-4-cyano-5-neopentylpyrrolidine-2-carboxamido)-3-methoxybenzoate] | 0.012 |
| COc1cc(C(=O)OCCOP(=O)(OC(C)(C)C)OC(C)(C)C)ccc1NC(=O)[C@@H]1N[C@@H](CC(C)(C)C)[C@](C#N)(c2ccc(Cl)cc2F)[C@H]1c1cccc(Cl)c1F [Example 12, 2-(Di-tert-butoxyphosphoryloxy)ethyl 4-((2R,3S,4R,5S)-3-(3-chloro-2-fluorophenyl)-4-(4-chloro-2-fluorophenyl)-4-cyano-5-neopentylpyrrolidine-2-carboxamido)-3-methoxybenzoate] | 0.00959 |
| CCN(CC)CCOC(=O)c1ccc(NC(=O)[C@@H]2N[C@@H](CC(C)(C)C)[C@](C#N)(c3ccc(Cl)cc3F)[C@H]2c2cccc(Cl)c2F)c(OC)c1 [Example 16, 4-{[(2R,3S,4R,5S)-4-(4-Chloro-2-fluoro-phenyl)-3-(3-chloro-2-fluoro-phenyl)-4-cyano-5-(2,2-dimethyl-propyl)-pyrrolidine-2-carbonyl]-amino}-3-methoxy-benzoic acid 2-diethylamino-ethyl ester] | 0.0501 |
| COc1cc(C(=O)OCC2CCN(C)CC2)ccc1NC(=O)[C@@H]1N[C@@H](CC(C)(C)C)[C@](C#N)(c2ccc(Cl)cc2F)[C@H]1c1cccc(Cl)c1F [Example 18, 4-{[(2R,3S,4R,5S)-4-(4-Chloro-2-fluoro-phenyl)-3-(3-chloro-2-fluoro-phenyl)-4-cyano-5-(2,2-dimethyl-propyl)-pyrrolidine-2-carbonyl]-amino}-3-methoxy-benzoic acid 1-methyl-piperidin-4-ylmethyl ester] | 0.024 |
| COc1cc(C(=O)OC(C)CN2CCOCC2)ccc1NC(=O)[C@@H]1N[C@@H](CC(C)(C)C)[C@](C#N)(c2ccc(Cl)cc2F)[C@H]1c1cccc(Cl)c1F (stereo partly drawn) [Example 21, 4-{[(2R,3S,4R,5S)-4-(4-Chloro-2-fluoro-phenyl)-3-(3-chloro-2-fluoro-phenyl)-4-cyano-5-(2,2-dimethyl-propyl)-pyrrolidine-2-carbonyl]-amino}-3-methoxy-benzoic acid 1-methyl-2-morpholin-4-yl-ethyl ester] | 0.0137 |
| COc1cc(C(=O)OCCN2CCOCC2)ccc1NC(=O)[C@@H]1N[C@@H](CC(C)(C)C)[C@](C#N)(c2ccc(Cl)cc2F)[C@H]1c1cccc(Cl)c1F [Example 22, 4-{[(2R,3S,4R,5S)-4-(4-Chloro-2-fluoro-phenyl)-3-(3-chloro-2-fluoro-phenyl)-4-cyano-5-(2,2-dimethyl-propyl)-pyrrolidine-2-carbonyl]-amino}-3-methoxy-benzoic acid 2-morpholin-4-yl-ethyl ester] | 0.015 |

Second part, the compound after the results:

| IC50 [µM] | Compound |
| --- | --- |
| 0.00675 | COc1cc(C(=O)NC(C)CO)ccc1NC(=O)[C@@H]1N[C@@H](CC(C)(C)C)[C@](C#N)(c2ccc(Cl)cc2F)[C@H]1c1cccc(Cl)c1F (mixture of isomers) [Example 14, Rac-(2R,3S,4R,5S)-4-(4-Chloro-2-fluoro-phenyl)-3-(3-chloro-2-fluoro-phenyl)-4-cyano-5-(2,2-dimethyl-propyl)-pyrrolidine-2-carboxylic acid [4-(2-hydroxy-1-methyl-ethylcarbamoyl)-2-methoxy-phenyl]-amide] |
| 0.0111 | COc1cc(C(=O)OCCO)ccc1NC(=O)[C@@H]1N[C@@H](CC(C)(C)C)[C@](C#N)(c2ccc(Cl)cc2F)[C@H]1c1cccc(Cl)c1F [Example 1, 2-Hydroxyethyl 4-((2R,3S,4R,5S)-3-(3-chloro-2-fluorophenyl)-4-(4-chloro-2-fluorophenyl)-4-cyano-5-neopentylpyrrolidine-2-carboxamido)-3-methoxybenzoate] |
| 0.00984 | COc1cc(C(=O)OCCOC(=O)[C@H](C)N)ccc1NC(=O)[C@@H]1N[C@@H](CC(C)(C)C)[C@](C#N)(c2ccc(Cl)cc2F)[C@H]1c1cccc(Cl)c1F [Example 4, 4-{[(2R,3S,4R,5S)-3-(3-Chloro-2-fluoro-phenyl)-4-(4-chloro-2-fluoro-phenyl)-4-cyano-5-(2,2-dimethyl-propyl)-pyrrolidine-2-carbonyl]-amino}-3-methoxy-benzoic acid 2-((S)-2-amino-propionyloxy)-ethyl ester] |
| 0.00957 | COc1cc(C(=O)OCC2COC(C)(C)O2)ccc1NC(=O)[C@@H]1N[C@@H](CC(C)(C)C)[C@](C#N)(c2ccc(Cl)cc2F)[C@H]1c1cccc(Cl)c1F (stereo partly drawn) [Example 8, (2,2-Dimethyl-1,3-dioxolan-4-yl)methyl 4-((2R,3S,4R,5S)-3-(3-chloro-2-fluorophenyl)-4-(4-chloro-2-fluorophenyl)-4-cyano-5-neopentylpyrrolidine-2-carboxamido)-3-methoxybenzoate] |
| 0.0107 | COCCOC(=O)c1ccc(NC(=O)[C@@H]2N[C@@H](CC(C)(C)C)[C@](C#N)(c3ccc(Cl)cc3F)[C@H]2c2cccc(Cl)c2F)c(OC)c1 [Example 10, 2-Methoxyethyl 4-((2R,3S,4R,5S)-3-(3-chloro-2-fluorophenyl)-4-(4-chloro-2-fluorophenyl)-4-cyano-5-neopentylpyrrolidine-2-carboxamido)-3-methoxybenzoate] |
| 0.0117 | COc1cc(C(=O)OCCI)ccc1NC(=O)[C@@H]1N[C@@H](CC(C)(C)C)[C@](C#N)(c2ccc(Cl)cc2F)[C@H]1c1cccc(Cl)c1F [Example 11, 2-Iodoethyl 4-((2R,3S,4R,5S)-3-(3-chloro-2-fluorophenyl)-4-(4-chloro-2-fluorophenyl)-4-cyano-5-neopentylpyrrolidine-2-carboxamido)-3-methoxybenzoate] |
| 0.00454 | COc1cc(C(=O)OCCOP(=O)(O)O)ccc1NC(=O)[C@@H]1N[C@@H](CC(C)(C)C)[C@](C#N)(c2ccc(Cl)cc2F)[C@H]1c1cccc(Cl)c1F [Example 13, 2-(Phosphonooxy)ethyl 4-((2R,3S,4R,5S)-3-(3-chloro-2-fluorophenyl)-4-(4-chloro-2-fluorophenyl)-4-cyano-5-neopentylpyrrolidine-2-carboxamido)-3-methoxybenzoate, trifluoroacetate salt] |
| 0.0115 | COc1cc(C(=O)OC2CCN(C)CC2)ccc1NC(=O)[C@@H]1N[C@@H](CC(C)(C)C)[C@](C#N)(c2ccc(Cl)cc2F)[C@H]1c1cccc(Cl)c1F [Example 17, 4-{[(2R,3S,4R,5S)-4-(4-Chloro-2-fluoro-phenyl)-3-(3-chloro-2-fluoro-phenyl)-4-cyano-5-(2,2-dimethyl-propyl)-pyrrolidine-2-carbonyl]-amino}-3-methoxy-benzoic acid 1-methyl-piperidin-4-yl ester] |
| 0.00558 | COc1cc(C(=O)OCCN2CCN(C)CC2)ccc1NC(=O)[C@@H]1N[C@@H](CC(C)(C)C)[C@](C#N)(c2ccc(Cl)cc2F)[C@H]1c1cccc(Cl)c1F [Example 19, 4-{[(2R,3S,4R,5S)-4-(4-Chloro-2-fluoro-phenyl)-3-(3-chloro-2-fluoro-phenyl)-4-cyano-5-(2,2-dimethyl-propyl)-pyrrolidine-2-carbonyl]-amino}-3-methoxy-benzoic acid 2-(4-methyl-piperazin-1-yl)-ethyl ester] |
| 0.00654 | COc1cc(C(=O)On2nnc3cccnc32)ccc1NC(=O)[C@@H]1N[C@@H](CC(C)(C)C)[C@](C#N)(c2ccc(Cl)cc2F)[C@H]1c1cccc(Cl)c1F [Example 20, 4-{[(2R,3S,4R,5S)-4-(4-Chloro-2-fluoro-phenyl)-3-(3-chloro-2-fluoro-phenyl)-4-cyano-5-(2,2-dimethyl-propyl)-pyrrolidine-2-carbonyl]-amino}-3-methoxy-benzoic acid [1,2,3]triazolo[4,5-b]pyridin-3-yl ester] |
| 0.00934 | CCN(CC)CCNC(=O)c1ccc(NC(=O)[C@@H]2N[C@@H](CC(C)(C)C)[C@](C#N)(c3ccc(Cl)cc3F)[C@H]2c2cccc(Cl)c2F)c(OC)c1 [Example 23, (2R,3S,4R,5S)-4-(4-Chloro-2-fluoro-phenyl)-3-(3-chloro-2-fluoro-phenyl)-4-cyano-5-(2,2-dimethyl-propyl)-pyrrolidine-2-carboxylic acid [4-(2-diethylamino-ethylcarbamoyl)-2-methoxy-phenyl]-amide, hydrochloride] |

Same assay, conditions: read-out: IC50 (uM, 0.02% BSA); HTRF, 0.02% BSA, 37° C. 1 h

| Compound | IC50 [µM] |
| --- | --- |
| 4-{[(2R,3S,4R,5S)-4-(4-Chloro-2-fluoro-phenyl)-3-(3-chloro-2-fluoro-phenyl)-4-cyano-5-(2,2-dimethyl-propyl)-pyrrolidine-2-carbonyl]-amino}-3-methoxy-benzoic acid, dodecaethylene glycol ester [Example 43] | 0.0062 |
| 4-{[(2R,3S,4R,5S)-4-(4-Chloro-2-fluoro-phenyl)-3-(3-chloro-2-fluoro-phenyl)-4-cyano-5-(2,2-dimethyl-propyl)-pyrrolidine-2-carbonyl]-amino}-3-methoxy-benzoic acid, polyethylene glycol-200 ester, trifluoroacetate salt [Example 45] | 0.0105 |
| 4-{[(2R,3S,4R,5S)-4-(4-Chloro-2-fluoro-phenyl)-3-(3-chloro-2-fluoro-phenyl)-4-cyano-5-(2,2-dimethyl-propyl)-pyrrolidine-2-carbonyl]-amino}-3-methoxy-benzoic acid, polyethylene glycol-600 ester, trifluoroacetate salt [Example 44] | 0.0113 |
